Values of other authors as cited in patent publication US4916151A, “Method of treating parkinson's syndrome” (Merrell Dow Pharmaceuticals Inc., priority 1989, dated 1990).

How the values were obtained:
MAO = details: literature; selectivity lost as dosage is increased
depression = details: literature reports
[1] = literature

| SMILES | preferential inhibition of MAO-A or MAO-B (MAO) | clinical antidepressant effect (depression) | potentiation of L-dopa for treatment of Parkinson's disease [1] |
| --- | --- | --- | --- |
| Cc1cc(C(=O)NNCc2ccccc2)no1 [isocarboxazid] | not preferential in their action upon MAO |  |  |
| NNCCc1ccccc1 [phenelzine] | not preferential in their action upon MAO |  |  |
| C#CCN(C)[C@H](C)Cc1ccccc1 [L-deprenyl] | MAO-B is preferentially inhibited | clinically effective antidepressant agents | potentiate L-dopa for the treatment of Parkinson's disease without producing peripheral side effects |
| N[C@@H]1C[C@H]1c1ccccc1 (relative stereo) [tranylcypromine] | not preferential in their action upon MAO |  |  |
| C#CCN(C)Cc1ccccc1 [pargyline] | MAO-B is preferentially inhibited | clinically effective antidepressant agents |  |
| C#CCN(C)CCCOc1ccc(Cl)cc1Cl [clorgyline] |  | clinically effective antidepressant agents |  |
